Test results reported in article PMC4072668, “Mass Spectrometric Detection and Characterization of Atypical Membrane-Bound Zinc-Sensitive Phosphatases Modulating GABAA Receptors” (PLoS ONE, 2014).

What was measured:
[1] = tested on: membrane-bound phosphatase activities of washed cortical membrane; test: LC-MS/MS phosphatase assay with effectors, C-terminal phosphopeptide pI2α1C-P as substrate; assay type: biochemical
Description: (§1) Phosphatasic activity of bovine, rat and human washed cortical membranes was measured by using synthetic phosphopeptides as substrates. Reactions were performed in presence of 50 µg/ml (total proteins) of washed cortical membrane, 10 mM Hepes-Tris pH 7.4 and 1 mM MgCl2. Enzymatic reactions were initiated by adding 10 µM of phosphopeptide incubated for 10 min at 30°C and stopped by adding ice-cold acetic acid at a final concentration of 10% (w/v). Following a 800 g centrifugation during 10 min at 4°C, the supernatants were analyzed by LC-MS/MS. […] For these reasons, and to avoid micro-capillary column obstruction we have preferentially used the micro-LC column to characterize the pharmacological profile of phosphatasic activities.
Quantification of appearance of the native peptide and disappearance of the phosphopeptide in different conditions was performed using the calibration curve plotted using the Xcalibur software (P/N 64018-XCALI version 1.3). […]
Figure 4 Effects of various inhibitors on the membrane-bound phosphatase activities. […] The activities are expressed as a percentage of that of control samples without inhibitors. […]

acid phosphatase = tested on: acid phosphatase; parameters: method as in PMID 10617768; conditions: up to 1–10 µM; cited from earlier work
PP2C = tested on: PP2C; parameters: method as in PMID 10617768; conditions: up to 1–10 µM; cited from earlier work
PP7 = tested on: PP7; parameters: method as in PMID 10617768; conditions: up to 1–10 µM; cited from earlier work
PTP = tested on: PTP; parameters: method as in PMID 10617768; conditions: up to 1–10 µM; cited from earlier work
PP6 = tested on: PP6; parameters: method as in PMID 10617768; conditions: mammalian brain; cited from earlier work
alkaline phosphatase = tested on: alkaline phosphatase; parameters: method as in PMID 10617768; conditions: up to 1–10 µM; cited from earlier work
PP5 = tested on: PP5; parameters: method as in PMID 10617768; conditions: mammalian brain; cited from earlier work
[2] = tested on: GABAA receptor currents in pyramidal neurons; test: Whole-cell patch clamp, rundown of GABAA currents in acutely dissociated cortical pyramidal neurons; assay type: cell-based, rat; conditions: 10 µM in the pipette
Description: Adult Sprague Dawley rats (35–40 days of age) were anesthetized by isoflurane and killed by decapitation. The brains were removed quickly and placed in cold artificial cerebro-spinal fluid (Ringer) containing (in mM) 126 NaCl, 3 KCl, 26 NaHCO3, 1.25 Na2HPO4, 2.5 CaCl2, 1.5 MgCl2, 10 D-glucose, saturated with carbogen gas (O2:CO2, 95:5%) pH 7.4. Cortical neurons were acutely dissociated from 400 µm thick slices by incubation in 3 mg/ml protease-XXIII (Sigma) at 32°C, followed by mechanical dissociation. After washing, the cells were transferred in a solution containing (in mM) 135 NaCl, 3 KCl, 2 CaCl2, 10 Hepes, 1 MgCl2, 7 TEA-Cl, 10 D-glucose, and 1 µM TTX, pH 7.4. Pyramidal neurons were recorded using borosilicate glass pipettes (4–5 MΩ) filled with a solution containing (in mM) 130 CsF, 10 CsCl, 4 NaCl, 0.5 CaCl2, 10 Hepes, 5 EGTA, and 7 Mg-ATP. Okadaic acid at 10 µM was added to this intracellular milieu for specific experiments.
Whole-cell peak currents induced by GABA (100 µM; fast applications of 1 sec pulses every 3 min) were measured for each application and normalized to the maximal response.
Figure 5 Effects of okadaic acid on the GABAA current rundown. GABAA currents were measured by whole-cell patch clamp on acutely dissociated cortical pyramidal neurons from Sprague Dawley rats. (A) Micrographs of a patched cell at two different magnifications, showing the rapid application device (left). (B) Rundown in cortical neuron: GABA was applied at a concentration of 100 µM during 1 second every 3 min. […] For each group the plot (Left) is the average of normalized currents. Error bars indicate the SEM.

PP4 = tested on: PP4; parameters: method as in PMID 10617768; conditions: mammalian brain; cited from earlier work
[3] = tested on: membrane-bound phosphatase activities of washed cortical membrane; test: LC-MS/MS phosphatase assay with effectors, N-terminal phosphopeptide pI2α1N-P as substrate; assay type: biochemical
Description: as §1
Quantification of appearance of the native peptide and disappearance of the phosphopeptide in different conditions was performed using the calibration curve plotted using the Xcalibur software (P/N 64018-XCALI version 1.3). The calibration curve and linear regression were constructed using a series of standards, native and phosphorylated equimolar mixture, N- or C-terminal peptides at different concentrations 0.5, 1, 2, 5 and 10 µM (n = 2) in 10 mM Hepes pH 7.4, 1 mM Mg^2+ and 10% acetic acid, which was the same milieu condition as in the phosphatase assay after stopping reactions. The linear regression represents peak area of MS/MS chromatogram spectra depending on the peptide concentration (Figure S1).
Different effectors were tested by addition to the incubation medium at variable concentration: the dicationic ions Mg^2+, Ca^2+, Zn^2+ were used as chloride, the polycation spermine as hydrochloride, the anion F^− as sodium fluoride (NaF), and the inhibitors of some known phosphatases okadaic acid and the two (+/−) enantiomers of p–bromotetramisole oxalate (p-Br-t). For the inhibitory effects, relative 50% inhibition concentration (IC50) values were either determined graphically with a log-scale for the concentration axis or by the ‘log (inhibitor) vs. response’ nonlinear fit of Prism 5 software (GraphPad), considering activity in the absence of inhibitor as 100%.
Figure 4 Effects of various inhibitors on the membrane-bound phosphatase activities. […] Incubations were performed at 30°C during 10 min. The activities are expressed as a percentage of that of control samples without inhibitors. Inhibition profiles of PPase activities by okadaic acid were performed using N-terminal phosphopeptide (A) or C-terminal phosphopeptide (B) as substrate. The data points are means ± SEM of 3 experiments. The red arrows indicate the different IC50. […] Data points are the average ± SEM of duplicate assays. (D) Effect of Ca^2+ ions, fluoride (F^−) and spermine (SPM^4+) on PPase activity using N-terminal phosphopeptide as substrate.

[4] = tested on: GABAA receptor currents in pyramidal neurons; parameters: method as in PMID 15342727; conditions: 10 µM in the pipette milieu, four neurons; cited from earlier work
PP2B = tested on: PP2B; parameters: method as in PMID 10617768; conditions: mammalian brain; cited from earlier work
PP2A = tested on: PP2A; parameters: method as in PMID 10617768; conditions: mammalian brain; cited from earlier work
PP1 = tested on: PP1; parameters: method as in PMID 10617768; conditions: mammalian brain; cited from earlier work

C=C1[C@@H](O)[C@@H]2O[C@]3(CC[C@H](/C=C/[C@@H](C)[C@@H]4CC(C)=C[C@@]5(O[C@H](C[C@@](C)(O)C(=O)O)CC[C@H]5O)O4)O3)CC[C@H]2O[C@@H]1[C@@H](O)C[C@H](C)[C@H]1O[C@@]2(CCCCO2)CC[C@H]1C [okadaic acid, Okadaic acid]
inhibition of membrane-bound phosphatases ([1]; 300 nM): completely inhibits | IC50 ([1]; only one affinity, read-out: apparent IC50): 0.18 nM | inhibition (acid phosphatase): not inhibited | inhibition (PP2C): not inhibited | inhibition (PP7): not inhibited | inhibition (PTP): not inhibited | IC50 (PP6): 2 nM | inhibition (alkaline phosphatase): not inhibited | IC50 (PP5): 1.4 to 10 nM | GABAA current rundown in some cells [2]: rundown could be abolished | GABAA current rundown, 'Very Rapid' group of neurons vs control ([2]; n = 5, Dunnett's test Ns): not sensitive to okadaic acid | GABAA current rundown, 'Mid Rapid', 'Mid Slow' and 'Very Slow' groups of neurons vs control ([2]; p<0.01 Mid Rapid, p<0.0001 Mid Slow and Very Slow): statistically different from the control | IC50 (PP4): 0.2 nM | inhibition of membrane-bound phosphatases ([3]; 300 nM, substrate pI2α1N-P): completely inhibits | inhibition of phosphatasic activities by the phosphopeptide method ([3]; 10 µM, substrate not specified): inhibited most phosphatasic activities | IC50 ([3]; substrate pI2α1N-P, read-out: apparent IC50, high affinity (H)): 0.15 nM | IC50 ([3]; substrate pI2α1N-P, read-out: apparent IC50, low affinity (L)): 5 nM | effect on the GABAA current rundown [4]: variable effect | IC50 (PP2B): 3600 nM | IC50 (PP2A): 2 nM | IC50 (PP1): 270 nM
